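Values below derive from 48-hour exposures of cells grown in 96-well plates, with endpoints linearly interpolated between the two concentrations bracketing the appropriate inhibition level. TGI: total growth inhibition.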
Each compound was assayed on NCI/ADR-RES ovarian (assay: NCI tumour cell line growth inhibition, 48 h).
With `O=c1cc[nH]c(=O)[nH]1` the TGI was > 562 µM. With `O=P(O)(O)CCP(=O)(O)O` the TGI was > 100 µM. For `Cc1n(Cc2ccccc2)c2c([n+]1C)C(=O)c1ccccc1C2=O`, the TGI was > 100 µM. `CN(C)c1ccc(/C=c2/c3ccccc3n3c2c2c([n+]3C)CCCC2)cc1` gave a TGI of 43.9 µM. `CC1(C)OC(C(=O)Nc2cc3c4ccccc4ccc3c3ccccc23)C(C(=O)N2CCCCC2)O1` (stereo not drawn) was tested, and the TGI was > 100 µM. In the case of `CCN(CC)CCNc1ccc2nnn3c4ccc(OCCN(CC)CC)cc4c(=O)c1c23`, the TGI is reported as > 100 µM. With `CC(=O)Nc1ccc(N=Nc2c(O)c(S(=O)(=O)O)cc3cc(S(=O)(=O)O)ccc23)cc1` the TGI was > 100 µM. `Nc1c(C(=O)O)nnc2ccc(Cl)cc12` was tested, and the TGI was > 100 µM. In the case of `O=C(O)C(O)C(O)C(O)C(O)c1nc2ccccc2s1` (stereo not drawn), the TGI is reported as > 100 µM.

These compounds were tested on OVCAR-3 ovarian (assay: NCI tumour cell line growth inhibition, 48 h).
For `CCCC(=O)OCC1OC(n2ccc(N)nc2=O)C(OC(=O)CCC)C1OC(=O)CCC` (stereo not drawn), the TGI was > 100 µM. With `O=S(=O)(O)CCCc1cccc2ccccc12` the TGI was > 100 µM. In the case of `CC(=O)OC1/C=C(\C)C(OC(C)=O)C/C=C(/C)CCC2C(/C=C/C1=O)C2(C)C` (stereo not drawn), the TGI is reported as > 100 µM. `NC(CCCCCP(=O)(c1ccccc1)C1C=CC=CC1)C(=O)O` (stereo not drawn) was tested, and the TGI was > 100 µM. With `COc1ccc(/C=C2\CCNC2=O)cc1` the TGI was > 100 µM. For `CC(C)Cc1ccc(C(C)C(=O)N2CCN(/C=C/c3ccccc3)CC2)cc1` (stereo not drawn), the TGI was 25.9 µM. Work on `CO/N=C(\C)c1ccc(Nc2nc3ccccc3c3occc23)cc1` yielded a TGI of 96.1 µM. With `O=c1cc[nH]c(=O)[nH]1` the TGI was > 1000 µM. With `O=P(O)(O)CCP(=O)(O)O` the TGI was > 100 µM. `O=c1sc2ccccc2n1CC1CS1` (stereo not drawn) was tested, and the TGI was > 100 µM. With `Cc1n(Cc2ccccc2)c2c([n+]1C)C(=O)c1ccccc1C2=O` the TGI was 0.0771 µM. For `O=C1c2cccc3c2C(=O)c2c(cccc21)OCCOCCOCCOCCO3`, the TGI was > 100 µM. For `C=CCc1c(O)c2c(c3oc(=O)cc(C)c13)CC(C)O2` (stereo not drawn), the TGI was > 100 µM. `CN(C)c1ccc(/C=c2/c3ccccc3n3c2c2c([n+]3C)CCCC2)cc1` was tested, and the TGI was 1.17 µM. For `CCOc1ncn(-c2ccc(NC(=S)Nc3ncccn3)cc2)n1`, the TGI was > 100 µM. `CC1(C)OC(C(=O)Nc2cc3c4ccccc4ccc3c3ccccc23)C(C(=O)N2CCCCC2)O1` (stereo not drawn) was tested, and the TGI was > 100 µM. Compound `COc1cc2c(cc1OC)C(CC1=C(c3ccccc3)CN3CCc4cc(OC)c(OC)cc4C3C1)NCC2` (stereo not drawn) has a TGI of 34.8 µM. For `CC(=O)Nc1ccc(N=Nc2c(O)c(S(=O)(=O)O)cc3cc(S(=O)(=O)O)ccc23)cc1`, the TGI was > 100 µM. In the case of `Nc1c(C(=O)O)nnc2ccc(Cl)cc12`, the TGI is reported as > 100 µM. Compound `O=C(O)C(O)C(O)C(O)C(O)c1nc2ccccc2s1` (stereo not drawn) has a TGI of 31.4 µM.

The compounds below were run on OVCAR-5 ovarian (assay: NCI tumour cell line growth inhibition, 48 h).
For `CCCC(=O)OCC1OC(n2ccc(N)nc2=O)C(OC(=O)CCC)C1OC(=O)CCC` (stereo not drawn), the TGI was > 100 µM. In the case of `O=S(=O)(O)CCCc1cccc2ccccc12`, the TGI is reported as > 100 µM. For `CC(=O)OC1/C=C(\C)C(OC(C)=O)C/C=C(/C)CCC2C(/C=C/C1=O)C2(C)C` (stereo not drawn), the TGI was > 100 µM. For `NC(CCCCCP(=O)(c1ccccc1)C1C=CC=CC1)C(=O)O` (stereo not drawn), the TGI was > 100 µM. In the case of `COc1ccc(/C=C2\CCNC2=O)cc1`, the TGI is reported as > 100 µM. Work on `CC(C)Cc1ccc(C(C)C(=O)N2CCN(/C=C/c3ccccc3)CC2)cc1` (stereo not drawn) yielded a TGI of 26.9 µM. In the case of `CO/N=C(\C)c1ccc(Nc2nc3ccccc3c3occc23)cc1`, the TGI is reported as 31.5 µM. `O=c1cc[nH]c(=O)[nH]1` was tested, and the TGI was > 956 µM. `O=P(O)(O)CCP(=O)(O)O` was tested, and the TGI was > 100 µM. With `O=c1sc2ccccc2n1CC1CS1` (stereo not drawn) the TGI was > 100 µM. `Cc1n(Cc2ccccc2)c2c([n+]1C)C(=O)c1ccccc1C2=O` gave a TGI of 0.503 µM. `O=C1c2cccc3c2C(=O)c2c(cccc21)OCCOCCOCCOCCO3` was tested, and the TGI was > 100 µM. In the case of `C=CCc1c(O)c2c(c3oc(=O)cc(C)c13)CC(C)O2` (stereo not drawn), the TGI is reported as > 100 µM. For `CN(C)c1ccc(/C=c2/c3ccccc3n3c2c2c([n+]3C)CCCC2)cc1`, the TGI was 5.86 µM. `CCOc1ncn(-c2ccc(NC(=S)Nc3ncccn3)cc2)n1` was tested, and the TGI was > 100 µM. In the case of `CC1(C)OC(C(=O)Nc2cc3c4ccccc4ccc3c3ccccc23)C(C(=O)N2CCCCC2)O1` (stereo not drawn), the TGI is reported as > 100 µM. With `CCN(CC)CCNc1ccc2nnn3c4ccc(OCCN(CC)CC)cc4c(=O)c1c23` the TGI was > 100 µM. `COc1cc2c(cc1OC)C(CC1=C(c3ccccc3)CN3CCc4cc(OC)c(OC)cc4C3C1)NCC2` (stereo not drawn) gave a TGI of 35.4 µM. `CC(=O)Nc1ccc(N=Nc2c(O)c(S(=O)(=O)O)cc3cc(S(=O)(=O)O)ccc23)cc1` was tested, and the TGI was > 100 µM. In the case of `Nc1c(C(=O)O)nnc2ccc(Cl)cc12`, the TGI is reported as > 100 µM. `O=C(O)C(O)C(O)C(O)C(O)c1nc2ccccc2s1` (stereo not drawn) was tested, and the TGI was 72.9 µM.

The compounds below were run on OVCAR-8 ovarian (assay: NCI tumour cell line growth inhibition, 48 h).
For `CCCC(=O)OCC1OC(n2ccc(N)nc2=O)C(OC(=O)CCC)C1OC(=O)CCC` (stereo not drawn), the TGI was > 100 µM. In the case of `O=S(=O)(O)CCCc1cccc2ccccc12`, the TGI is reported as > 100 µM. `CC(=O)OC1/C=C(\C)C(OC(C)=O)C/C=C(/C)CCC2C(/C=C/C1=O)C2(C)C` (stereo not drawn) was tested, and the TGI was > 100 µM. In the case of `NC(CCCCCP(=O)(c1ccccc1)C1C=CC=CC1)C(=O)O` (stereo not drawn), the TGI is reported as > 100 µM. `COc1ccc(/C=C2\CCNC2=O)cc1` was tested, and the TGI was > 100 µM. With `CC(C)Cc1ccc(C(C)C(=O)N2CCN(/C=C/c3ccccc3)CC2)cc1` (stereo not drawn) the TGI was 29.1 µM. Compound `CO/N=C(\C)c1ccc(Nc2nc3ccccc3c3occc23)cc1` has a TGI of 33.9 µM. With `O=c1cc[nH]c(=O)[nH]1` the TGI was > 1000 µM. For `O=P(O)(O)CCP(=O)(O)O`, the TGI was > 100 µM. `O=c1sc2ccccc2n1CC1CS1` (stereo not drawn) was tested, and the TGI was > 100 µM. For `Cc1n(Cc2ccccc2)c2c([n+]1C)C(=O)c1ccccc1C2=O`, the TGI was 0.826 µM. With `O=C1c2cccc3c2C(=O)c2c(cccc21)OCCOCCOCCOCCO3` the TGI was > 100 µM. For `C=CCc1c(O)c2c(c3oc(=O)cc(C)c13)CC(C)O2` (stereo not drawn), the TGI was > 100 µM. With `CN(C)c1ccc(/C=c2/c3ccccc3n3c2c2c([n+]3C)CCCC2)cc1` the TGI was 2.49 µM. Work on `CCOc1ncn(-c2ccc(NC(=S)Nc3ncccn3)cc2)n1` yielded a TGI of 56 µM. With `CC1(C)OC(C(=O)Nc2cc3c4ccccc4ccc3c3ccccc23)C(C(=O)N2CCCCC2)O1` (stereo not drawn) the TGI was > 100 µM. In the case of `CCN(CC)CCNc1ccc2nnn3c4ccc(OCCN(CC)CC)cc4c(=O)c1c23`, the TGI is reported as > 100 µM. Compound `COc1cc2c(cc1OC)C(CC1=C(c3ccccc3)CN3CCc4cc(OC)c(OC)cc4C3C1)NCC2` (stereo not drawn) has a TGI of 36.8 µM. For `CC(=O)Nc1ccc(N=Nc2c(O)c(S(=O)(=O)O)cc3cc(S(=O)(=O)O)ccc23)cc1`, the TGI was > 100 µM. With `Nc1c(C(=O)O)nnc2ccc(Cl)cc12` the TGI was > 100 µM. Work on `O=C(O)C(O)C(O)C(O)C(O)c1nc2ccccc2s1` (stereo not drawn) yielded a TGI of 37.4 µM.

These compounds were tested on SF-268 CNS (assay: NCI tumour cell line growth inhibition, 48 h).
With `CCCC(=O)OCC1OC(n2ccc(N)nc2=O)C(OC(=O)CCC)C1OC(=O)CCC` (stereo not drawn) the TGI was > 100 µM. `O=S(=O)(O)CCCc1cccc2ccccc12` was tested, and the TGI was > 100 µM. In the case of `CC(=O)OC1/C=C(\C)C(OC(C)=O)C/C=C(/C)CCC2C(/C=C/C1=O)C2(C)C` (stereo not drawn), the TGI is reported as > 100 µM. With `NC(CCCCCP(=O)(c1ccccc1)C1C=CC=CC1)C(=O)O` (stereo not drawn) the TGI was > 100 µM. With `COc1ccc(/C=C2\CCNC2=O)cc1` the TGI was > 100 µM. Work on `CC(C)Cc1ccc(C(C)C(=O)N2CCN(/C=C/c3ccccc3)CC2)cc1` (stereo not drawn) yielded a TGI of 32 µM. Compound `CO/N=C(\C)c1ccc(Nc2nc3ccccc3c3occc23)cc1` has a TGI of 32.5 µM. With `O=c1cc[nH]c(=O)[nH]1` the TGI was > 1000 µM. With `O=P(O)(O)CCP(=O)(O)O` the TGI was > 100 µM. With `O=c1sc2ccccc2n1CC1CS1` (stereo not drawn) the TGI was > 100 µM. `Cc1n(Cc2ccccc2)c2c([n+]1C)C(=O)c1ccccc1C2=O` gave a TGI of 0.143 µM. In the case of `O=C1c2cccc3c2C(=O)c2c(cccc21)OCCOCCOCCOCCO3`, the TGI is reported as > 100 µM. With `C=CCc1c(O)c2c(c3oc(=O)cc(C)c13)CC(C)O2` (stereo not drawn) the TGI was > 100 µM. `CN(C)c1ccc(/C=c2/c3ccccc3n3c2c2c([n+]3C)CCCC2)cc1` gave a TGI of 1.6 µM. For `CCOc1ncn(-c2ccc(NC(=S)Nc3ncccn3)cc2)n1`, the TGI was > 100 µM. With `CC1(C)OC(C(=O)Nc2cc3c4ccccc4ccc3c3ccccc23)C(C(=O)N2CCCCC2)O1` (stereo not drawn) the TGI was > 100 µM. For `CCN(CC)CCNc1ccc2nnn3c4ccc(OCCN(CC)CC)cc4c(=O)c1c23`, the TGI was > 100 µM. Work on `COc1cc2c(cc1OC)C(CC1=C(c3ccccc3)CN3CCc4cc(OC)c(OC)cc4C3C1)NCC2` (stereo not drawn) yielded a TGI of 37.5 µM. In the case of `CC(=O)Nc1ccc(N=Nc2c(O)c(S(=O)(=O)O)cc3cc(S(=O)(=O)O)ccc23)cc1`, the TGI is reported as > 100 µM. `Nc1c(C(=O)O)nnc2ccc(Cl)cc12` was tested, and the TGI was > 100 µM. `O=C(O)C(O)C(O)C(O)C(O)c1nc2ccccc2s1` (stereo not drawn) gave a TGI of 29 µM.

Each compound was assayed on SR leukemia (assay: NCI tumour cell line growth inhibition, 48 h).
In the case of `O=S(=O)(O)CCCc1cccc2ccccc12`, the TGI is reported as > 100 µM.

Source: PubChem BioAssay (NCI)
